Patent publication US4021557A, “11-Aminoalkyl-pyridobenzodiazepinones and salts thereof” (Boehringer Ingelheim GmbH, priority 1974, dated 1977)

Legend:
[1] = test system: acetylcholine-induced bronchospasm; experiment: Antagonism to acetylcholine-provoked bronchospasm in anesthetized guinea pigs (Konzett and Rossler), i.v.; antiasthmatic / bronchospasmolytic activity; assay type: in vivo; settings: guinea pig; for ED50: Cavia porcellus, iv, 20γ acetylcholine per kg i.v., graphic extrapolation, read-out: Bronchospasmolytic ED50 against acetylcholine-induced bronchospasm
Protocol: The antiasthmatic activity was tested as the antagonism to bronchospasm provoked by intravenous administration of 20γ of acetylcholine per kg body weight in anesthetized guinea pigs (according to method of Konzett and Rossler). From the average percentage decrease of the bronchospasm produced by administering various doses of the compounds of the […] invention an ED50 was determined by graphic extrapolation. The compounds were administered intravenously.

[2] = Acute toxicity after i.v. administration in NMRI-mice (Litchfield and Wilcoxon); settings: mouse, in vivo, iv, both sexes, deaths within 14 days, read-out: LD50 in the mouse after i.v. application
Protocol: The acute toxicity was determined with NMRI-mice of both sexes (body weight 20 gm) after intravenous administration of the compound. 0.1 ml of a 0.9% sodium chloride solution per 10gm of animal was used as the vehicle.

[3] = test system: heart rate; experiment: Effect on heart rate of the anesthetized cat after intravenous administration; assay type: in vivo; design: key to type of the reaction (heart rate): --: decrease in heart rate; settings: i.v.; for ED10 (dose leading to a 10% alteration of the heart rate) / ED25 (dose leading to a 25% alteration of the heart rate): graphic extrapolation; for type of the reaction (heart rate): tested dosage range 250 - 4,000 γ/kg (A 12.5 - 16,000; W 125 - 4,000)
Protocol: The effect on the heart rate was tested on cats of both sexes (body weight between 2.3 and 3.5 kg) under chloralose-urethane anesthesia. The heart rate was continuously registered by means of a Grass-tachograph 7P4, controlled by the R-wave of the electrocardiogram. The test compound was injected through a catheter introduced into the vena femoralis.

SMILES | ED50 [1] [mg/kg] | Average duration of effective action in the ED50 range [1] [min] | LD50 at 336 h [2] [mg/kg] | ED10 (dose leading to a 10% alteration of the heart rate) [3] | type of the reaction (heart rate) [3] | ED25 (dose leading to a 25% alteration of the heart rate) [3]
CN(C)CCN1c2ccccc2N(C)C(=O)c2cccnc21.Cl [B, 6,11-dihydro-11-(2'-dimethylamino-ethyl)-6-methyl-5H-pyrido[2,3-b][1,5]benzodiazepin-5-one hydrochloride] | 0.148 | > 110 | 25.8 |  |  | 
CN(C)CCCN1c2ccccc2N(C)C(=O)c2cccnc21.Cl [C, 6,11-dihydro-11-(3'-dimethylamino-n-propyl)-6-methyl-5H-pyrido[2,3-b][1,5]benzodiazepin-5-one hydrochloride] | 0.081 | > 60 | 30.7 | > 4,000 γ/kg | -- | 
CNCCCN1c2ccccc2N(C)C(=O)c2cccnc21.Cl [D, 6,11-dihydro-6-methyl-11-(3'-methylamino-n-propyl)-5H-pyrido[2,3-b][1,5]benzodiazepin-5-one hydrochloride] | 0.155 | 45 | 43.2 |  |  | 
CCNCCCN1c2ccccc2N(C)C(=O)c2cccnc21.Cl [E, 11-(3'-ethylamino-n-propyl)-6,11-dihydro-6-methyl-5H-pyrido[2,3-b][1,5]benzodiazepin-5-one hydrochloride] | 0.068 | > 90 | 56.1 | 1,050 γ/kg | -- | > 4,000 γ/kg
CC(C)NCCCN1c2ccccc2N(C)C(=O)c2cccnc21.Cl [F, 6,11-dihydro-11-(3'-isopropylamino-n-propyl)-6-methyl-5H-pyrido[2,3-b][1,5]benzodiazepin-5one hydrochloride] | 0.172 | > 110 | 43.5 |  |  | 
CCN(CC)CCN1c2ccccc2N(C)C(=O)c2cccnc21.Cl [G, 11-(2'-diethylamino-ethyl)-6,11-dihydro-6-methyl-5H-pyrido[2,3-b][1,5]benzodiazepin-5-one hydrochloride] | 0.044 | 50 | 27.1 |  |  | 
CCCN(CCC)CCCN1c2ccccc2N(C)C(=O)c2cccnc21.Cl [H, 6,11-dihydro-11-(3'-di-n-propylamino-n-propyl)-6-methyl-5H-pyrido[2,3-b][1,5]benzodiazepin-5-one hydrochloride] | 0.095 | > 70 | 21.7 |  |  | 
CC(C)N(CCN1c2ccccc2N(C)C(=O)c2cccnc21)C(C)C.Cl [I, 6,11-dihydro-11-(2'-diisopropylamino-ethyl)-6-methyl-5H-pyrido[2,3-b][1,5]benzodiazepin-5-one hydrochloride] | 0.018 | 40 | 30.3 | 1,300 γ/kg | -- | > 4,000 γ/kg
CN1C(=O)c2cccnc2N(CCCN2CCCC2)c2ccccc21.Cl [L, 6,11-dihydro-6-methyl-11-(3'-pyrrolidino-n-propyl)-5H-pyrido[2,3-b][1,5]benzodiazepin-5one hydrochloride] | 0.043 | 120 | 22.7 | 1,900 γ/kg | -- | 3,950 γ/kg
CN1C(=O)c2cccnc2N(CCCN2CCCCC2)c2ccccc21.Cl [M, 6,11-dihydro-6-methyl-11-(3'-piperidino-n-propyl)-5H-pyrido[2,3-b][1,5]benzodiazepin-5-one hydrochloride] | 0.063 | > 60 | 10.6 | 1,400 γ/kg | -- | > 4,000 γ/kg
CN1C(=O)c2cccnc2N(CCCN2CCCCCC2)c2ccccc21.Cl [N, 6,11-dihydro-11-(3'-hexamethyleneimino-n-propyl)-6-methyl-5H-pyrido[2,3-b][1,5]benzodiazepin-5-one hydrochloride] | 0.064 | > 50 | 12.7 |  |  | 
CN1C(=O)c2cccnc2N(CCN2CCCC2)c2ccccc21.Cl [O, 6,11-dihydro-6-methyl-11-(2'-pyrrolidino-ethyl)-5H-pyrido[2,3-b][1,5]benzodiazepin-5-one hydrochloride] | 0.097 | > 30 | 11.4 | > 4,000 γ/kg | -- | 
CCN(CC)CCN1c2ccccc2C(=O)N(C)c2cccnc21.Cl [P, 11-(2'-diethylamino-ethyl)-5,11-dihydro-5-methyl-6H-pyrido[2,3-b][1,4]benzodiazepin-6-one hydrochloride] | 0.21 | 110 |  |  |  | 
CC(C)N(CCN1c2ccccc2C(=O)N(C)c2cccnc21)C(C)C.Cl [Q, 5,11-dihydro-11-(2'-diisopropylamino-ethyl)-5-methyl-6H-pyrido[2,3-b][1,4]benzodiazepin-6-one hydrochloride] | 0.053 | > 50 | 27 |  |  | 
CN(C)CCCN1c2ccccc2C(=O)N(C)c2cccnc21 [R, 5,11-dihydro-11-(3'-dimethylamino-n-propyl)-5-methyl-6H-pyrido[2,3-b][1,4]benzodiazepin-6-one] | 0.19 | > 50 |  |  |  | 
CCN(CC)CCCN1c2ccccc2C(=O)N(C)c2cccnc21.Cl [S, 5,11-dihydro-11-(3'-diethylamino-n-propyl)-5-methyl-6H-pyrido[2,3-b][1,4]benzodiazepin-6-one hydrochloride] | 0.123 | > 110 |  |  |  | 
CC(C)N(CCCN1c2ccccc2C(=O)N(C)c2cccnc21)C(C)C.Cl [T, 5,11-dihydro-11-(3'-diisopropylamino-n-propyl)-5-methyl-6H-pyrido[2,3-b][1,4]benzodiazepin-6-one hydrochloride] | 0.0165 | 50 | 22.2 | 1,400 γ/kg | -- | 3,600 γ/kg
CN1C(=O)c2ccccc2N(CCCN2CCCC2)c2ncccc21.Cl [U, 5,11-dihydro-5-methyl-11-(3-pyrrolidino-n-propyl)-6H-pyrido[2,3-b][1,4]benzodiazepin-6-one hydrochloride] | 0.105 | > 50 | 22.9 | 2,300 γ/kg | -- | > 4,000 γ/kg
